The source of these data is patent US8716292B2, “Riminophenazines with 2-(heteroaryl)amino substituents and their anti-microbial activity” (priority 2010, dated 2014).

Values after ≈ are worked out from the molar mass of the structure shown.

For one assay, the system named is Mycobacterium tuberculosis H37Rv strains. The assay can be described thus: In vitro assay for antimicrobial susceptibility (microplate Alamar blue MIC). It counts as cell-based. The note with it: Mycobacterium tuberculosis, H37RV, 7H9, Alamar blue, inhibition ≧90%; read-out: MIC (μg/mL) against H37Rv.
Consider `Fc1ccc(-n2c3c/c(=N\C4CCOCC4)c(Nc4cnccn4)cc-3nc3ccccc32)cc1` [TBI-1085, 5-(4-Fluorophenyl)-3-(4-tetrahydropyranyl)imino-2-(pyrazin-2-yl)amino-3,5-dihydrophenazine], for which the MIC came to 0.038 µg/mL (≈ 0.0815 µM).
Regarding `CC(C)/N=c1\cc2n(-c3ccc(F)cc3)c3ccccc3nc-2cc1Nc1ncccc1C#N` [TBI-1057], the MIC was 0.015 µg/mL (≈ 0.0334 µM).
For the compound `Clc1ccc(-n2c3c/c(=N\C4CCOCC4)c(Nc4cncnc4)cc-3nc3ccccc32)cc1` [TBI-960, 5-(4-Chlorophenyl)-3-(4-tetrahydropyranyl)imino-2-(pyrimidin-5-yl)amino-3,5-dihydrophenazine], the MIC came out at 0.03 µg/mL (≈ 0.0621 µM).

The same assay, now with this note: Mycobacterium tuberculosis, H37RV, in vitro, Mycobacterium tuberculosis H37Rv strains; read-out: MIC (μg/mL) against H37Rv.
Take `Cc1ccc(Nc2cc3nc4ccccc4n(-c4ccc(Br)cc4)c-3c/c2=N\C2CCC2)cn1` [TBI-501, 5-(4-Bromophenyl)-3-cyclobutylimino-2-(6-methyl-3-pyridyl)amino-3,5-dihydrophenazine]: the MIC came out at 0.09 µg/mL (≈ 0.176 µM).
Consider `COc1ncccc1Nc1cc2nc3cc(F)ccc3n(-c3ccc(OC(F)(F)F)cc3)c-2c/c1=N\C1CCC(OC)CC1` (stereo not shown) [TBI-861, 8-Fluoro-5-(4-trifluoromethoxyphenyl)-3-(4-methoxycyclohexyl)imino-2-(2-methoxy-3-pyridyl)amino-3,5-dihydrophenazine], for which the MIC turned out to be 0.058 µg/mL (≈ 0.0955 µM).
On to `COc1ncccc1Nc1cc2nc3cc(F)ccc3n(-c3ccc(Cl)cc3)c-2c/c1=N\C(C)C` [TBI-929, 8-Fluoro-5-(4-chlorophenyl)-3-(1-methylethyl)imino-2-(2-methoxy-3-pyridyl)amino-3,5-dihydrophenazine], for which the MIC came out at 0.125 µg/mL (≈ 0.256 µM).
For the compound `COc1ncccc1Nc1cc2nc3ccccc3n(-c3ccc(OC(F)(F)F)cc3)c-2c/c1=N\C1CCN(C)CC1` [TBI-168, 5-(4-Trifluoromethoxyphenyl)-3-(N-methyl-4-piperidyl)imino-2-(2-methoxy-3-pyridyl)amino-3,5-dihydrophenazine], the MIC was 0.109 µg/mL (≈ 0.19 µM).
For the compound `COc1ccc(Nc2cc3nc4ccccc4n(-c4ccc(F)cc4)c-3c/c2=N\C2CCOCC2)cn1` [TBI-935, 5-(4-Fluorophenyl)-3-(4-tetrahydropyranyl)imino-2-(6-methoxy-3-pyridyl)amino-3,5-dihydrophenazine], the MIC is 0.205 µg/mL (≈ 0.414 µM).
Regarding `COCC(COC)/N=c1\cc2n(-c3ccc(F)cc3)c3ccccc3nc-2cc1Nc1cccnc1OC` [TBI-1048, 5-(4-Fluorophenyl)-3-(1,3-dimethoxyisopropyl)imino-2-(2-methoxy-3-pyridyl)amino-3,5-dihydrophenazine], the MIC was found to be 0.226 µg/mL (≈ 0.44 µM).
On to `COc1ncccc1Nc1cc2nc3ccc(F)cc3n(-c3ccc(Cl)cc3)c-2c/c1=N\C1CCC(OC)CC1` (stereo not shown) [TBI-924], for which the MIC was 0.06 µg/mL (≈ 0.108 µM).
Take `COc1ncccc1Nc1cc2nc3ccccc3n(-c3ccc(C)cc3)c-2c/c1=N\C1CC1` [TBI-339, 5-(4-Methylphenyl)-3-cyclopropylimino-2-(2-methoxy-3-pyridyl)amino-3,5-dihydrophenazine]: the MIC came to 0.033 µg/mL (≈ 0.0737 µM).
Regarding `COc1ncccc1Nc1cc2nc3cc(C#N)ccc3n(-c3ccc(F)cc3)c-2c/c1=N\C1CCOCC1` [TBI-1066, 8-Cyano-5-(4-fluorophenyl)-3-(4-tetrahydropyranyl)imino-2-(2-methoxy-3-pyridyl)amino-3,5-dihydrophenazine], the MIC was greater than 6.64 µg/mL.
As for `Cc1ccc(-n2c3c/c(=N\CCN4CCOCC4)c(Nc4cccnc4C)cc-3nc3ccccc32)cc1` [TBI-324, 5-(4-Methylphenyl)-3-(2-morpholinoethyl)imino-2-(2-methyl-3-pyridyl)amino-3,5-dihydrophenazine], the MIC came to 0.12 µg/mL (≈ 0.238 µM).
In the case of `COc1ncccc1Nc1cc2nc3cc(F)ccc3n(-c3ccc(Cl)c(Cl)c3)c-2c/c1=N\C1CCC(OC)CC1` (stereo not shown) [TBI-879, 8-Fluoro-5-(3,4-dichlorophenyl)-3-(4-methoxycyclohexyl)imino-2-(2-methoxy-3-pyridyl)amino-3,5-dihydrophenazine], the MIC was found to be 0.109 µg/mL (≈ 0.184 µM).
On to `COc1ccc(Nc2cc3nc4ccccc4n(-c4ccc(F)cc4)c-3c/c2=N\C(C)C)cn1` [TBI-930], for which the MIC came to 0.494 µg/mL (≈ 1.09 µM).
On the same count and under the same terms, the figure for `Clc1ccc(-n2c3c/c(=N\C4CCOCC4)c(Nc4cncc(Br)c4)cc-3nc3ccccc32)cc1` [TBI-880, 5-(4-Chlorophenyl)-3-(4-tetrahydropyranyl)imino-2-(5-bromo-3-pyridyl)amino-3,5-dihydrophenazine] is 0.036 µg/mL (≈ 0.0642 µM).
As for `FC(F)(F)c1ccc(-n2c3c/c(=N\C4CCOCC4)c(Nc4cccnc4)cc-3nc3ccccc32)cc1` [TBI-686, 5-(4-Trifluoromethylphenyl)-3-(4-tetrahydropyranyl)imino-2-(3-pyridyl)amino-3,5-dihydrophenazine], the MIC is 0.125 µg/mL (≈ 0.242 µM).
As to `CSc1cccc(-n2c3c/c(=N\C(C)C)c(Nc4cccnc4)cc-3nc3ccccc32)c1` [TBI-454, 5-(3-Methylthiophenyl)-3-(1-methylethyl)imino-2-(3-pyridyl)amino-3,5-dihydrophenazine], the MIC was 0.213 µg/mL (≈ 0.472 µM).
Turning to `Cc1ccc(Nc2cc3nc4ccccc4n(-c4ccc(C(F)(F)F)cc4)c-3c/c2=N\C2CCCCC2)cn1` [TBI-717, 5-(4-Trifluoromethylphenyl)-3-cyclohexylimino-2-(6-methyl-3-pyridyl)amino-3,5-dihydrophenazine], the MIC came out at 0.015 µg/mL (≈ 0.0284 µM).
With `COc1ncccc1Nc1cc2nc3ccccc3n(-c3ccc(NC(C)=O)cc3)c-2c/c1=N\C(C)C` [TBI-1220, 5-(4-Acetamidophenyl)-3-(1-methylethyl)imino-2-(2-methoxy-3-pyridyl)amino-3,5-dihydrophenazine], the MIC was greater than 0.5 µg/mL.
On to `FC(F)(F)Oc1cccc(-n2c3c/c(=N\C4CCCCC4)c(Nc4cccnc4)cc-3nc3ccccc32)c1` [TBI-1022, 5-(3-Trifluoromethoxyphenyl)-3-cyclohexylimino-2-(3-pyridyl)amino-3,5-dihydrophenazine], for which the MIC was found to be 0.074 µg/mL (≈ 0.14 µM).
As for `Cc1ccc(Nc2cc3nc4ccccc4n(-c4ccccc4)c-3c/c2=N\C2CC2)cn1` [TBI-095], the MIC is 0.048 µg/mL (≈ 0.115 µM).
Regarding `Cc1ccc(Nc2cc3nc4ccc(F)cc4n(-c4ccc(Cl)cc4)c-3c/c2=N\C2CCCCC2)cn1` [TBI-918, 7-Fluoro-5-(4-chlorophenyl)-3-cyclohexylimino-2-(6-methyl-3-pyridyl)amino-3,5-dihydrophenazine], the MIC was 0.253 µg/mL (≈ 0.494 µM).
Consider `CC(=O)Nc1ccc(Nc2cc3nc4ccccc4n(-c4ccc(F)cc4)c-3c/c2=N\C2CCN(C)CC2)cn1` [TBI-912, 5-(4-Fluorophenyl)-3-(N-methyl-4-piperidyl)imino-2-(6-acetamino-3-pyridyl)amino-3,5-dihydrophenazine], for which the MIC stood at 0.351 µg/mL (≈ 0.655 µM).
With `COc1ccc(Nc2cc3nc4ccccc4n(-c4ccccc4)c-3c/c2=N\C2CCOCC2)cn1` [TBI-515, 5-Phenyl-3-(4-tetrahydropyranyl)imino-2-(6-methoxy-3-pyridyl)amino-3,5-dihydrophenazine], the MIC came to 0.233 µg/mL (≈ 0.488 µM).
The same measure, in the same setting: the figure for `COc1ncccc1Nc1cc2nc3ccccc3n(-c3ccccc3Cl)c-2c/c1=N\C1CCOCC1` [TBI-870] is 0.084 µg/mL (≈ 0.164 µM); for `COc1ncccc1Nc1cc2nc3cc(F)ccc3n(-c3ccc(Cl)cc3)c-2c/c1=N\C1CCC(OC)CC1` (stereo not shown) [TBI-936, 8-Fluoro-5-(4-chlorophenyl)-3-(4-methoxycyclohexyl)imino-2-(2-methoxy-3-pyridyl)amino-3,5-dihydrophenazine] it is 0.06 µg/mL (≈ 0.108 µM).
Take `COCC(C/N=c1\cc2n(-c3cccc(Cl)c3)c3ccccc3nc-2cc1Nc1cccnc1OC)OC` (stereo not shown) [TBI-826, 5-(3-Chlorophenyl)-3-(2,3-dimethoxy-1-propyl)imino-2-(2-methoxy-3-pyridyl)amino-3,5-dihydrophenazine]: the MIC stood at 0.125 µg/mL (≈ 0.236 µM).
Turning to `Cc1ncccc1Nc1cc2nc3ccccc3n(-c3ccc(C(F)(F)F)cc3)c-2c/c1=N\C(C)C` [TBI-705, 5-(4-Trifluoromethylphenyl)-3-(1-methylethyl)imino-2-(2-methyl-3-pyridyl)amino-3,5-dihydrophenazine], the MIC was determined as 0.014 µg/mL (≈ 0.0287 µM).
In the case of `CC(C)/N=c1\cc2n(-c3cccc(Cl)c3)c3ccccc3nc-2cc1Nc1cccnc1` [TBI-810, 5-(3-Chlorophenyl)-3-(1-methylethyl)imino-2-(3-pyridyl)amino-3,5-dihydrophenazine], the MIC was 0.103 µg/mL (≈ 0.234 µM).
Turning to `Fc1ccc(-n2c3c/c(=N\C4CCCCC4)c(Nc4cccnc4)cc-3nc3ccccc32)cc1F` [TBI-527, 5-(3,4-Difluorophenyl)-3-cyclohexylimino-2-(3-pyridyl)amino-3,5-dihydrophenazine], the MIC is 0.039 µg/mL (≈ 0.081 µM).
For the compound `COc1ccc(Nc2cc3nc4ccccc4n(-c4ccc(C)cc4)c-3c/c2=N\C(C)C)cn1` [TBI-356, 5-(4-Methylphenyl)-3-(1-methylethyl)imino-2-(6-methoxy-3-pyridyl)amino-3,5-dihydrophenazine], the MIC worked out at 0.459 µg/mL (≈ 1.02 µM).
As to `COc1ncccc1Nc1cc2nc3ccccc3n(-c3ccc(C(F)(F)F)cc3)c-2c/c1=N\C(C)C` [TBI-699, 5-(4-Trifluoromethylphenyl)-3-(1-methylethyl)imino-2-(2-methoxy-3-pyridyl)amino-3,5-dihydrophenazine], the MIC stood at 0.029 µg/mL (≈ 0.0576 µM).
With `Cc1ncccc1Nc1cc2nc3ccccc3n(-c3ccc(C(F)(F)F)cc3)c-2c/c1=N\C1CCCCC1` [TBI-708, 5-(4-Trifluoromethylphenyl)-3-cyclohexylimino-2-(2-methyl-3-pyridyl)amino-3,5-dihydrophenazine], the MIC worked out at 0.028 µg/mL (≈ 0.0531 µM).
Take `COc1ncccc1Nc1cc2nc3ccccc3n(-c3ccccc3)c-2c/c1=N\C1CCC(OC)CC1` (stereo not shown) [TBI-063, 5-Phenyl-3-(4-methoxycyclohexyl)imino-2-(2-methoxy-3-pyridyl)amino-3,5-dihydrophenazine]: the MIC is 0.06 µg/mL (≈ 0.119 µM).
As to `COc1ncccc1Nc1cc2nc3ccccc3n(-c3ccc(Cl)cc3Cl)c-2c/c1=N\C(C)C` [TBI-369, 5-(2,4-Dichlorophenyl)-3-(1-methylethyl)imino-2-(2-methoxy-3-pyridyl)amino-3,5-dihydrophenazine], the MIC worked out at 0.104 µg/mL (≈ 0.206 µM).
Consider `CC(C)/N=c1\cc2n(-c3ccc(Br)cc3)c3ccccc3nc-2cc1Nc1cccnc1` [TBI-088, 5-(4-Bromophenyl)-3-(1-methylethyl)imino-2-(3-pyridyl)amino-3,5-dihydrophenazine], for which the MIC is 0.023 µg/mL (≈ 0.0475 µM).
